What follows are compounds tested against 4-aminobutyrate aminotransferase, mitochondrial (Rattus norvegicus, UniProt P50554) (assay: Inhibition of Rattus norvegicus (rat) brain gamma-amino butyrate aminotransferase using gamma-amino butyrate as substrate assessed as decrease in NADPH generation after 30 min by spectrophotometric analysis).
Sequence of 4-aminobutyrate aminotransferase, mitochondrial (P50554 whole entry): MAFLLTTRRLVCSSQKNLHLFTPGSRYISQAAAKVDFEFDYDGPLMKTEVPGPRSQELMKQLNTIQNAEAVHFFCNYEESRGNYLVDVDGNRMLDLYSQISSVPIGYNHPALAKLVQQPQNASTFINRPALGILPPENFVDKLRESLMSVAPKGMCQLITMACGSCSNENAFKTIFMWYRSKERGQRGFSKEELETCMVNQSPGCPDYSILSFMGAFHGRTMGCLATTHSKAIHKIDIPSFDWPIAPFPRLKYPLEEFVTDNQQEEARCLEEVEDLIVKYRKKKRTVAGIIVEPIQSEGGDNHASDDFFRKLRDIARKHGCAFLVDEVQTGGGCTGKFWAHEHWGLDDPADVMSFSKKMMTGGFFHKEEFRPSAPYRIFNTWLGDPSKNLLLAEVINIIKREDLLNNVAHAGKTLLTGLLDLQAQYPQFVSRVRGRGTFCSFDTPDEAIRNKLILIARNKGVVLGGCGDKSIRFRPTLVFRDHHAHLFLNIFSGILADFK

**Q.** NCCCC(=O)N/N=C1\CCCc2ccccc21 was tested. Which IC50 did it give?
**A.** 280 nM

**Q.** Which IC50 does the source give for NCCCC(=O)N/N=C(/C(=O)c1ccccc1)c1ccccc1 here?
**A.** 300 nM

**Q.** Which IC50 does the source give for NCCCC(=O)N/N=C(\c1ccccc1)c1ccc(Br)cc1 here?
**A.** 560 nM

**Q.** How did the IC50 turn out when O=C(O)CCCN=C(/C=C/c1ccccc1)/C=C/c1ccccc1 was run?
**A.** 9950 nM

**Q.** How did the IC50 turn out when CC12CCC(C1)C(C)(C)/C2=N\CCCC(=O)O (stereo not drawn) was run?
**A.** 10000 nM

**Q.** For O=C(O)CCC/N=C1/C(=O)c2ccccc2-c2ccccc21, which IC50 is on record?
**A.** 15500 nM

**Q.** Which IC50 does the source give for O=C(O)CCC/N=C1/C(=O)c2cccc3cccc1c23 here?
**A.** 16800 nM

**Q.** Which IC50 does the source give for CC1CCCC/C1=N\CCCC(=O)O (stereo not drawn) here?
**A.** 20800 nM

**Q.** With CC1CCC(C(C)C)/C(=N/CCCC(=O)O)C1 (stereo not drawn) as the compound, how does the IC50 read?
**A.** 20800 nM

**Q.** Which IC50 does the source give for C=C(C)C1CC=C(C)/C(=N/CCCC(=O)O)C1 (stereo not drawn) here?
**A.** 23500 nM

**Q.** How did the IC50 turn out when CC1=C/C(=N/CCCC(=O)O)CC(C)(C)C1 was run?
**A.** 25900 nM

**Q.** CC1=CC(=O)C=C/C1=N\CCCC(=O)O was tested. Which IC50 did it give?
**A.** 30100 nM

**Q.** With C/C(=N\CCCC(=O)O)c1ccc2ccccc2c1 as the compound, how does the IC50 read?
**A.** 44100 nM

**Q.** How did the IC50 turn out when Nc1cccc(C(=O)N/N=C2/c3ccccc3C(=O)c3ccc(O)c(O)c32)c1 was run?
**A.** 240 nM

**Q.** Which IC50 does the source give for C/C(=N/NC(=O)c1cccc(N)c1)c1cccc(Cl)c1 here?
**A.** 320 nM

**Q.** Nc1cccc(C(=O)N/N=C(/c2ccccc2)c2ccc(Cl)cc2)c1 was tested. Which IC50 did it give?
**A.** 370 nM

**Q.** How did the IC50 turn out when Nc1cccc(C(=O)N/N=C2/c3ccccc3C(=O)c3ccc(Cl)cc32)c1 was run?
**A.** 460 nM

**Q.** CCc1ccc2c(c1)/C(=N/c1cccc(C(=O)O)c1)c1ccccc1C2=O was tested. Which IC50 did it give?
**A.** 1210 nM

**Q.** Which IC50 does the source give for O=C(O)c1cccc(/N=C2\C(=O)c3ccccc3-c3ccccc32)c1 here?
**A.** 2780 nM

**Q.** How did the IC50 turn out when O=C(O)c1cccc(N=C2c3ccccc3C(=O)c3ccccc32)c1 was run?
**A.** 4960 nM

**Q.** Which IC50 does the source give for CC1=C(C)C(=Nc2cccc(C(=O)O)c2)C(C)=C(C)C1=O here?
**A.** 6540 nM

**Q.** For C/C(=N/NC(=O)CCCN)c1ccccc1Br, which IC50 is on record?
**A.** 73 nM

**Q.** For C/C(=N/NC(=O)CCCN)c1cccc(Cl)c1, which IC50 is on record?
**A.** 91 nM

**Q.** With Cc1ccc2c(c1)/C(=N\NC(=O)CCCN)c1ccccc1C2=O as the compound, how does the IC50 read?
**A.** 110 nM

**Q.** How did the IC50 turn out when NCCCC(=O)N/N=C/c1cccc(I)c1 was run?
**A.** 150 nM

**Q.** NCCCC(=O)N/N=C1\CCc2ccccc2C1 was tested. Which IC50 did it give?
**A.** 130 nM

**Q.** For NCCCC(=O)NN=C1c2ccccc2C(=O)c2ccccc21, which IC50 is on record?
**A.** 140 nM

**Q.** NCCCC(=O)N/N=C/c1ccccc1I was tested. Which IC50 did it give?
**A.** 200 nM

Reference: ChEMBL document CHEMBL3045067, “-Amino butyric acid analogs as novel potent GABA-AT inhibitors: molecular docking, synthesis, and biological evaluation” (Med Chem Res, 2013)
